Experimental data as given in article PMC10485906, “Development of a Dihydroquinoline–Pyrazoline GluN2C/2D-Selective Negative Allosteric Modulator of the N-Methyl-D-aspartate Receptor” (ACS Chemical Neuroscience, 2023).
Where two headings read alike, the source gives them in different places.

Key:
Plasma stability, mouse = format: in vitro ADME; settings: for half-life at 3 μM / remaining at 120 min, 3 µM: male, BALB/C, mouse; for half-life at 3 μM: mouse plasma, incubation up to 120 min, read-out: plasma stability T1/2, mouse; for remaining at 120 min, 3 µM: plasma, over the assay time course
Procedure: Human plasma (lithium heparin (LiHep) mixed, gender pooled, 0.2 μm filtered) and mouse plasma (BALB/C, LiHep mixed, male pooled, 0.2 μm filtered) were purchased from BioIVT. Procaine (Sigma-Aldrich) served as a positive control for both human and mouse plasma experiments. Test compounds and positive controls were initially dissolved in DMSO to make 10 mM stock solutions. The solutions of test and control compounds were then further diluted in 70% MeOH/H2O or 100% MeCN to 500 μM. Next, the human or mouse plasma (994 μL) was aliquoted into 1.5 mL Eppendorf tubes with duplicates (reactions A and B) being prepared for each compound. The plasma was then incubated at 37 °C for 10 min. Afterward, the reaction was initiated by the addition of the test compound (6 μL of 500 μM solution) and further incubated at 37 °C for the designated time course of the study. This procedure provided duplicate experiments with a final volume of 1000 μL (<0.6% organic solvent content) and a final test compound concentration of 3 μM. Aliquots (100 μL) were removed from each reaction mixture at 0, 15, 30, 60, and 120 min time intervals and quenched with 150 μL of cold ISTD solution (2 μM 7-ethoxy-d5-coumarin in MeOH or MeCN). Quenched aliquots were then centrifuged at 15,000 g for 30–45 min, and the resulting supernatants (∼70 μL) were withdrawn and placed in LC-MS vials to be analyzed by LC-MS/MS (Agilent G6460C QQQ MS coupled with an Infinity II 1260 HPLC). Each test compound was run in tandem with positive and negative control experiments for quality assurance. The positive control reaction was conducted at a final volume of 1000 μL for a single run at each time point. Finally, the negative control experiment was conducted with test compounds in DPBS (143 μL) and analyzed at the 120 min time point.
For both LM and plasma assays, each data point was analyzed in triplicate using between blank washes to avoid carry over and to equilibrate the column for the subsequent runs. Averages of these triplicates for individual compounds at each time point were then normalized to the data at 0 min, representing 100% of the test compound remaining or 0% metabolism. Half-lives (t1/2) were calculated by plotting ln of % test compound remaining versus time and performing linear regression to determine slope. Slope = −k and t1/2 = 0.693/k for first-order kinetics (see Figures S5 and S6 for a representative example).

[1] = Brain homogenate tissue binding and stability (RED device); format: in vitro ADME, mouse; settings: for fraction unbound at 4 h, 5 µM / remaining at 4 h, 5 µM: C57BL/6, mouse, brain homogenate (4 times diluted); for remaining at 4 h, 5 µM: pH 7.4, starting concentration 5 μM; for recovery at 4 h, 5 μM: C57BL/6, pH 7.4, mouse brain tissue binding; for Average 2i Concentration, Buffer_Mice: buffer chamber after 4 h dialysis; for Average 2i Concentration, Brain_St_0Hr_Mice / Average 2i Concentration, Brain_St_4Hr_Mice: brain homogenate stability sample; for Average 2i Concentration, Brain_St_0Hr_Mice: 0 h; for Average 2i Concentration, Brain_Mice: brain homogenate chamber after 4 h dialysis
Procedure: Carbamazepine (Apin Chemicals) served as a positive control for brain tissue binding. Test compounds and the positive control were initially dissolved in DMSO to make 1 mM stock solutions. […] A rapid equilibrium dialysis (RED) device (Thermo Scientific) containing a dialysis membrane with a molecular weight cutoff of 8000 Da was used to assess tissue binding and metabolic stability. […] The test compounds and positive control (200 μL of 5 μM solution) were added to the red chamber of the dialysis insert, while the white chamber was filled with dialysis buffer (350 μL). The RED device was then sealed with an adhesive film and incubated at 37 °C with shaking (300 rpm) for 4 h. For the initial time point (t = 0 min), 50 μL aliquots of test compounds and the positive control were added to 96-deep well plates (0.7 mL per well) and quenched with 400 μL of MeCN. Following dialysis, another 50 μL aliquot of the tested samples was removed from each well (brain homogenate and buffer) and diluted with an equal volume of the opposite matrix to nullify any matrix effects. […] The supernatant (100 μL) was subsequently transferred to 96-deep well plates for LC-MS/MS analysis. Prodrug metabolism and 2i concentrations were determined by fit-for-purpose LC-MS/MS methods on a nine-point calibration curve ranging from 0.12 to 7.5 μM.

CYP2D6 = target: T1, CYP2D6 (Homo sapiens, UniProt P10635); assay: Fluorometric CYP450 enzyme inhibition assay, CYP2D6; format: in vitro ADME; settings: n = 2 (2k n = 4)
T1 construct: purchased Corning; host or cells: insect cells (microsomes)
T1 sequence (P10635 whole entry): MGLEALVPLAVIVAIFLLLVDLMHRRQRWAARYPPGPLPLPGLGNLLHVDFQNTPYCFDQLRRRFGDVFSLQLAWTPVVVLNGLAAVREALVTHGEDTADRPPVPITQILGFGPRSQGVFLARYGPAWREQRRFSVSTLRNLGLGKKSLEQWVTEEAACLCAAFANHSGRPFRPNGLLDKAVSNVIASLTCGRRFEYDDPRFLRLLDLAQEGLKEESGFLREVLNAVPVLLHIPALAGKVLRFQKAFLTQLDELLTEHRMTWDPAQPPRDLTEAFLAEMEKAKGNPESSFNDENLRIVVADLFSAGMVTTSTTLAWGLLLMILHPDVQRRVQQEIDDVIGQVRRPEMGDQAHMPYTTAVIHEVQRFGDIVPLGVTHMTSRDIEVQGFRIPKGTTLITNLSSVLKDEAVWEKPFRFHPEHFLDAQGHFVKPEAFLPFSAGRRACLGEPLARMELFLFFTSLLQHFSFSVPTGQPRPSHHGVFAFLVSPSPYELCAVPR

[2] = pH 7.4, mouse brain tissue binding (free fraction in brain), read-out: % Unbound
[3] = pH 7.4, mouse brain tissue binding, RED, 4 h, read-out: % Bound Mean ± SD (converted)
[4] = pH 7.4, mouse brain tissue binding, RED, 4 h, read-out: % Bound R1 (converted)
[5] = pH 7.4, mouse brain tissue binding, RED, 4 h, read-out: % Bound R2 (converted)

half-life at 3 μM (Plasma stability, mouse) [min] | remaining at 120 min, 3 µM (Plasma stability, mouse) [%] | fraction unbound at 4 h, 5 µM [1, 2] | fraction unbound at 4 h, 5 µM [1, 3] | fraction unbound at 4 h, 5 µM [1, 4] | fraction unbound at 4 h, 5 µM [1, 5] | fraction unbound at 4 h, 5 µM ([1]; pH 7.4, mouse brain tissue binding, read-out: fu) | remaining at 4 h, 5 µM ([1]; 4 h) [%] | recovery at 4 h, 5 μM ([1]; RED, 4 h) [%] | IC50 (CYP2D6) [µM] | metabolized in mouse plasma (% of prodrug) (Plasma stability, mouse; after 2 h) [%] | metabolized in brain homogenate (% of prodrug) ([1]; after 4 h) [%] | Average 2i Concentration, Buffer_Mice [1] | Average 2i Concentration, Brain_St_0Hr_Mice [1] | Average 2i Concentration, Brain_Mice [1] | Average 2i Concentration, Brain_St_4Hr_Mice ([1]; 4 h) | Structure (SMILES)
> 120 | > 95 | 0.002 | 0.002 | 0.001 | 0.002 | 0.002 | 94 | 100 | 18 ± 0.8 |  |  |  |  |  |  | O=C(O)CCC(=O)N1N=C(c2c(-c3ccc(Cl)cc3)c3ccccc3[nH]c2=O)CC1c1ccc(Cl)cc1 (stereo not drawn) [2a]
> 120 | > 95 | < 0.001 | < 0.001 | < 0.001 | < 0.001 |  | 105 | 57 | > 20 |  |  |  |  |  |  | O=C(O)CC(F)(F)C(=O)N1N=C(c2c(-c3ccc(Cl)cc3)c3ccccc3[nH]c2=O)CC1c1ccc(Cl)cc1 (stereo not drawn) [2i]
> 120 |  |  |  |  |  |  | 44 | 41 | > 20 | 42 | 56 |  |  |  |  | NC(=O)CC(F)(F)C(=O)N1N=C(c2c(-c3ccc(Cl)cc3)c3ccccc3[nH]c2=O)CC1c1ccc(Cl)cc1 (stereo not drawn) [2k]
4.2 |  |  |  |  |  |  | 43 | 41 | > 20 |  |  | BLQ |  |  |  | CCOC(=O)CC(F)(F)C(=O)N1N=C(c2c(-c3ccc(Cl)cc3)c3ccccc3[nH]c2=O)CC1c1ccc(Cl)cc1 (stereo not drawn) [2l]
37 |  |  |  |  |  |  | 56 | 51 | > 20 |  |  | BLQ |  |  |  | CC(C)OC(=O)CC(F)(F)C(=O)N1N=C(c2c(-c3ccc(Cl)cc3)c3ccccc3[nH]c2=O)CC1c1ccc(Cl)cc1 (stereo not drawn) [2m]
1.3 |  |  |  |  |  |  | 25 | 29 | > 20 |  |  | BLQ | BLQ |  |  | O=C(CC(F)(F)C(=O)N1N=C(c2c(-c3ccc(Cl)cc3)c3ccccc3[nH]c2=O)CC1c1ccc(Cl)cc1)OCC1CC1 (stereo not drawn) [2n]
4 |  |  |  |  |  |  | 53 | 44 | > 20 |  |  | BLQ | BLQ |  |  | CC(C)(C)COC(=O)CC(F)(F)C(=O)N1N=C(c2c(-c3ccc(Cl)cc3)c3ccccc3[nH]c2=O)CC1c1ccc(Cl)cc1 (stereo not drawn) [2o]
1.4 |  |  |  |  |  |  | 31 | 33 | > 20 |  |  | BLQ |  |  |  | O=C(CC(F)(F)C(=O)N1N=C(c2c(-c3ccc(Cl)cc3)c3ccccc3[nH]c2=O)CC1c1ccc(Cl)cc1)OCc1ccccc1 (stereo not drawn) [2p]
> 120 |  |  |  |  |  |  | 33 | 30 | > 20 |  |  | BLQ | BLQ | BLQ | BLQ | CNC(=O)CC(F)(F)C(=O)N1N=C(c2c(-c3ccc(Cl)cc3)c3ccccc3[nH]c2=O)CC1c1ccc(Cl)cc1 (stereo not drawn) [2q]
> 120 |  | < 0.001 | < 0.001 | < 0.001 | < 0.001 |  | 93 | 90 | > 20 |  |  | BLQ | BLQ | BLQ | BLQ | CN(C)C(=O)CC(F)(F)C(=O)N1N=C(c2c(-c3ccc(Cl)cc3)c3ccccc3[nH]c2=O)CC1c1ccc(Cl)cc1 (stereo not drawn) [2r]
